According to PubChem BioAssay (NCI):
Values joined by “and” are separate entries in the source; they are usually repeats but may differ in a detail not shown here. Equal entries are not always repeated.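 The compound was tested at five concentrations on cells cultured in 96-well plates, with a 48-hour exposure period. At the GI50, growth is halved. At the TGI there is no net growth.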

How the values were obtained:
Assay in all cases: DTP human tumour cell line panel, 48 h
HOP-62 NSCLC = test system: HOP-62 NSCLC
OVCAR-8 ovarian = test system: OVCAR-8 ovarian
SN12C renal = test system: SN12C renal
MOLT-4 leukemia = test system: MOLT-4 leukemia
EKVX NSCLC = test system: EKVX NSCLC
TK-10 renal = test system: TK-10 renal
SW-620 colon = test system: SW-620 colon
MDA-MB-231 breast = test system: MDA-MB-231 breast

Compound	TGI (HOP-62 NSCLC)	TGI (OVCAR-8 ovarian)	TGI (SN12C renal)	TGI (MOLT-4 leukemia)	TGI (EKVX NSCLC)	TGI (TK-10 renal)	TGI (SW-620 colon)	GI50 (MDA-MB-231 breast)	GI50 (MOLT-4 leukemia)	TGI (MDA-MB-231 breast)	GI50 (HOP-62 NSCLC)	GI50 (OVCAR-8 ovarian)	GI50 (SN12C renal)	GI50 (EKVX NSCLC)	GI50 (SW-620 colon)	GI50 (TK-10 renal)
Cn1c2ccc3cc2c(=S)c2cc(ccc21)OCCOCCOCCOCCOCCOCCO3	> 10 µM	> 10 µM	> 10 µM	> 10 µM	> 10 µM	> 10 µM	> 10 µM	–	–	–	–	–	–	–	–	–
CC1=C2C(=C[C@@](C)(CO)[C@@H]2O)C(=O)[C@](C)(O)C12CC2	0.0263 µM and 0.0432 µM	0.0311 µM	0.112 µM and 0.119 µM	–	0.0678 µM and 0.0153 µM	0.106 µM	0.074 µM and 0.129 µM	0.503 µM	0.0107 µM	–	–	–	–	–	–	–
C#CCn1c(=O)c2ccccc2n(CC#C)c1=O	> 10 µM	> 10 µM	> 10 µM	> 10 µM	> 10 µM	> 10 µM	> 10 µM	–	–	> 10 µM	–	–	–	–	–	–
Cc1nnc(NC(=O)c2nc(S(=O)(=O)Cc3ccc(F)cc3)ncc2Cl)s1	39.3 µM	7.77 µM	6.56 µM	4.38 µM	24.3 µM	–	3.25 µM	1.78 µM	2.02 µM	3.31 µM	19.8 µM	2.72 µM	2.39 µM	6.73 µM	1.51 µM	–
CC1SC(c2ccc(F)cc2)N(NC(=O)C(O)c2ccccc2)C1=O (centres undefined)	> 100 µM	> 100 µM	> 100 µM	> 100 µM	> 100 µM	> 100 µM	> 100 µM	> 100 µM	> 100 µM	> 100 µM	> 100 µM	> 100 µM	> 100 µM	> 100 µM	> 100 µM	> 100 µM
CCCOc1cc2ccccc2cc1C(=O)Nc1nc(N)c2c(ccc3nccc32)[nH]1	2.69 µM	1.69 µM	3.22 µM	–	2.25 µM	2.06 µM	1.8 µM	1.06 µM	–	2.85 µM	0.0798 µM	0.203 µM	1.42 µM	0.398 µM	0.0377 µM	0.458 µM
COc1ccc(/C=N/NC(=O)c2cccc3cc[nH]c23)cc1O	> 100 µM	> 100 µM	> 40.9 µM	> 66.2 µM	> 100 µM	> 100 µM	> 100 µM	0.685 µM	2.84 µM	> 35 µM	11.2 µM	6.2 µM	0.493 µM	11 µM	0.65 µM	14.4 µM
COc1ccc(C2[C@@H](c3ccccc3)C(=O)N2c2cc(OC)c(OC)c(OC)c2)cc1F (some centres undefined)	> 100 µM	> 100 µM	> 100 µM	> 100 µM	> 100 µM	> 100 µM	> 100 µM	0.0452 µM	0.0381 µM	> 100 µM	0.0379 µM	0.0344 µM	0.0561 µM	0.0776 µM	0.0419 µM	1.68 µM
C=C1C(=O)O[C@H]2[C@H]1CC/C(COC(=O)NCc1ccc(Cn3c(=O)sn(-c4ccc(OC)cc4)c3=O)cc1)=C\CC[C@@]1(C)O[C@@H]21	26.9 µM	5.82 µM	4.96 µM	5.95 µM	14.6 µM	3.49 µM	3.61 µM	1.97 µM	1.93 µM	4.11 µM	13.2 µM	2.37 µM	2.14 µM	3.5 µM	1.77 µM	1.91 µM
C/C(=C\CBr)CCC(Br)C(C)(C)Br (centres undefined)	> 100 µM	> 100 µM	> 100 µM	> 100 µM	> 100 µM	> 100 µM	> 100 µM	–	–	> 100 µM	–	–	–	–	–	–
Nc1n[nH]c2cccc(C#Cc3cccc(C(=O)Nc4ccc(CN5CCOCC5)c(C(F)(F)F)c4)c3)c12	10.1 µM	8.18 µM	9.48 µM	4.24 µM	19 µM	12.9 µM	12.7 µM	1.3 µM	1.4 µM	4.7 µM	2.88 µM	2.54 µM	2.48 µM	3.42 µM	2.89 µM	4.22 µM
O=C(O)c1nc2nc(Cl)c(Cl)nc2[nH]1	> 100 µM	> 100 µM	> 100 µM	> 100 µM	> 100 µM	> 100 µM	> 100 µM	–	–	> 100 µM	–	–	–	–	–	–
Oc1[nH]c2ccccc2c1N=Nc1nc(-c2ccc(Br)cc2)cs1	28.6 µM	35.8 µM	83.2 µM	> 100 µM	30.4 µM	61.2 µM	> 100 µM	–	–	62.5 µM	–	–	–	–	–	–
O=[N+]([O-])c1ccc(Cl)cc1N/N=C/c1ccnc2ccccc12	> 100 µM	> 100 µM	> 100 µM	> 100 µM	> 100 µM	> 100 µM	> 100 µM	–	–	> 100 µM	–	–	–	–	–	–
O=C(Oc1ccc(Cl)cc1)c1ccccc1Nc1ccnc(C(F)(F)F)c1	–	35.5 µM	8.72 µM	> 100 µM	64 µM	48.9 µM	63.3 µM	1.78 µM	> 100 µM	7.04 µM	–	4.04 µM	2.95 µM	25.2 µM	6.66 µM	17.9 µM
COc1cccc(C2SC(N)=Nc3c2c(C)nn3C(=O)c2ccccc2O)c1 (centres undefined)	> 10 µM	> 10 µM	> 10 µM	> 10 µM	> 10 µM	> 10 µM	> 10 µM	–	–	> 9.64 µM	–	–	–	–	–	–
COc1ccc(-c2cn[nH]c2-c2cc(OC)c(OC)c(OC)c2)cc1	33.7 µM	38.1 µM	47.3 µM	4.21 µM	–	–	26.7 µM	0.055 µM	0.0457 µM	33.1 µM	0.0352 µM	0.05 µM	0.193 µM	–	0.0316 µM	–
Nc1ccccc1SC(CC(=O)c1ccccc1)c1cccc([N+](=O)[O-])c1 (centres undefined)	28.9 µM	28.5 µM	26.9 µM	50.5 µM	–	35.1 µM	12.2 µM	14.4 µM	17.6 µM	28.3 µM	15.5 µM	14.9 µM	13.9 µM	–	3.03 µM	20.7 µM
COc1cc(C2CC(C)(O)Oc3cc4c(cc32)OCO4)cc(OC)c1OC (centres undefined)	> 100 µM	6.01 µM	> 100 µM	> 100 µM	> 100 µM	> 100 µM	> 100 µM	–	–	0.851 µM	–	–	–	–	–	–
